The nature of series [1]: Distribution coefficient (D7.4), shake-flask method, n-octanol/buffered aqueous solution pH 7.40. It is filed as physicochemical. The settings on record: n-octanol/PBS pH 7.4, 25 °C, read-out: logD7.4 (proligand). As to the method:
Distribution coefficients (D7.4) values were determined by the traditional shake-flask method in n-octanol/buffered aqueous solution at pH 7.40 (20 mM phosphate buffer saline (PBS)) at 25.0 ± 0.2 °C as described previously.

The nature of series [2]: Redox reaction of copper(II) complexes with GSH, anaerobic UV/Vis kinetics. It is filed as physicochemical. To be noted: copper(II) complex (1–4) of the proligand, pH = 7.4, ccomplex = 25 μM, cGSH = 1.25 mM. As to the method:
The redox reactions of the copper(II) complexes with GSH and AA were studied at 25.0 ± 0.1 °C on Hewlett Packard 8452A diode array spectrophotometer using a special, tightly closed tandem cuvette (Hellma Tandem Cell, 238-QS). The reactants were separated until the reaction was triggered. Both isolated pockets of the cuvette were completely deoxygenated by bubbling a stream of argon for 10–15 min before mixing the reactants. Spectra were recorded before and then immediately after the mixing, and changes were followed until no further absorbance change was observed. One of the isolated pockets contained the reducing agent and its concentration was 1250 μM and the other contained 25 μM copper(II) complex. The pH of all the solutions was adjusted to 7.40 by 50 mM HEPES buffer and an ionic strength of 0.1 M (KCl) was applied. The stock solutions of the reducing agents and the complexes were freshly prepared every day. During the calculations, the absorbance (A) − time (t) curves were fitted and analysed at the λmax of the complex. (A0 − Afinal) × e^(−a×t) + Afinal equation was used where A0, Afinal and a parameters were refined and accepted at the minimal value of the weighted sum of squared residuals (difference between the measured and calculated absorbance values) at the given wavelength. Then observed rate constants (kobs) of the redox reaction were obtained from the data points of the simulated absorbance–time curves as the slope of the ln(A/A0) versus t plots.

The subject of series [3] is Colo 320 multidrug resistant colonic adenocarcinoma cells (overexpressing ABCB1 (MDR1)-LRP). The series can be described thus: MTT cytotoxicity (24 h) / antiproliferation (72 h) assay. Type of series: cell-based. The settings on record: Homo sapiens, read-out: Colo320 IC50. As to the method: Human doxorubicin-sensitive Colo 205 (ATCC-CCL-222) and multidrug resistant Colo 320 (overexpressing ABCB1 (MDR1)-LRP (ATCC-CCL-220.1)) colonic adenocarcinoma cell lines were purchased from LGC Promochem, Teddington, UK. The cells were cultured in RPMI 1640 medium supplemented with 10% heat-inactivated fetal bovine serum, 2 mM L-glutamine, 1 mM Na-pyruvate and 100 mM Hepes. The cell lines were incubated at 37 °C, in a 5% CO2, 95% air atmosphere. The semi-adherent human colon cancer cells were detached with Trypsin-Versene (EDTA) solution for 5 min at 37 °C.
(§1) In the study non-cancerous human embryonic lung fibroblast MRC-5, human colonic adenocarcinoma cell line (doxorubicin-sensitive Colo 205, multidrug resistant Colo 320) and neuroblastoma cell line SH-SY5Y were used to determine the effect of compounds on cell growth. The effects of increasing concentrations of compounds on cell growth were tested in 96-well flat-bottomed microtiter plates. The compounds were diluted in a volume of 100 μL of medium.
In case of the colonic adenocarcinoma cells, the two-fold serial dilutions of compounds were prepared in 100 μL of RPMI 1640, horizontally. The semi-adherent colonic adenocarcinoma cells were treated with Trypsin–Versene (EDTA) solution. The cells were adjusted to a density of 2 × 10^4 cells in 100 μL of RPMI 1640 medium, and were added to each well, with the exception of the medium control wells. The final volume of the wells containing compounds and cells was 200 μL.
(§2) The culture plates were incubated at 37 °C for 24 h; at the end of the incubation period, 20 μL of MTT (thiazolyl blue tetrazolium bromide, Sigma) solution (from a stock solution of 5 mg/mL) were added to each well. After incubation at 37 °C for 4 h, 100 μL of sodium dodecyl sulfate (SDS) (Sigma) solution (10% in 0.01 M HCI) were added to each well and the plates were further incubated at 37 °C overnight. Cell growth was determined by measuring the optical density (OD) at 540/630 nm with Multiscan EX ELISA reader (Thermo Labsystems, Cheshire, WA, USA). […] Curves were fitted by GraphPad Prism software using the sigmoidal dose-response model (comparing variable and fixed slopes).
(§3) The method is similar to the one described in the assay for cytotoxic effect. […] The culture plates were incubated at 37 °C for 72 h and after the incubation time, the plates were stained with MTT according to the previous experimental protocol described for the cytotoxicity assay.

For series [4], the system named is SH-SY5Y neuroblastoma cells. The series is described as above. The settings on record: SH-SY5Y; for IC50: Homo sapiens, MTT; for enhancement of cytotoxicity by chelation to copper(II), factor: proligand vs its copper(II) complex. It is filed as cell-based, human. The protocol:
SH-SY5Y (ATCC® CRL-2266™) neuroblastoma cell line was purchased from LGC Promochem, Teddington, UK. The cell line was cultured in Eagle’s Minimal Essential Medium (EMEM, containing 4.5 g/L glucose) supplemented with a non-essential amino acid mixture, a selection of vitamins and 10% heat-inactivated foetal bovine serum. The cell line was incubated at 37 °C, in a 5% CO2, 95% air atmosphere.
as §1
(§4) The adherent human embryonal lung fibroblast and SH-SY5Y neuroblastoma cells were cultured in 96-well flat-bottomed microtiter plates, using EMEM supplemented with 10% heat-inactivated foetal bovine serum. The density of the cells was adjusted to 2 × 10^4 cells in 100 μL per well, the cells were seeded for 24 h at 37 °C, 5% CO2, then the medium was removed from the plates containing the cells, and the dilutions of compounds previously made in a separate plate were added to the cells in 200 μL.
as §2, §3

Experiment in series [5]: as above
Type of series: cell-based. To be noted: human, MRC-5 embryonal lung fibroblast cells (non-cancerous); for IC50 at 24 h: 24 h exposure; for IC50 at 72 h: 72 h exposure. The protocol:
MRC-5 human embryonal lung fibroblast cell line (ATCC CCL-171) was purchased from LGC Promochem, Teddington, UK. The cell line was cultured in Eagle’s Minimal Essential Medium (EMEM, containing 4.5 g/L glucose) supplemented with a non-essential amino acid mixture, a selection of vitamins and 10% heat-inactivated foetal bovine serum. The cell line was incubated at 37 °C, in a 5% CO2, 95% air atmosphere.
as §1, §4, §2, §3

Molecules are shown by their SMILES. Read-outs that look alike come from different tables or passages of the source. Some results are limits rather than exact numbers.

One may read the IC50 as the concentration that gives 50% inhibition.

As for `CCNC(=S)N/N=C/c1cc(C[N+](C)(C)C)ccc1O` [[H2L^Et]Cl], the logD in series [1] turned out to be 0.06 ± 0.04. Besides, the “kobs, observed rate constant of the redox reaction with GSH” value (shortened to “kobs, observed rate constant”) in series [2] was 0.058 ± 0.001 min⁻¹. Also, the IC50 came to 63.8 ± 3.92 µM in series [3] (24 h exposure), 53.3 ± 2.44 µM in series [3] (72 h exposure), 88.1 ± 9.19 µM in series [4] (24 h exposure) and 49.9 ± 3.97 µM in series [4] (72 h exposure). In addition, the IC50 at 24 h in series [5] is over 100 µM. In series [5], this compound gave an IC50 at 72 h of over 100 µM.
As for `C[N+](C)(C)Cc1ccc(O)c(/C=N/NC(N)=S)c1` [[H2L^H]Cl], in series [1], the logD is -0.84 ± 0.03. The “kobs, observed rate constant” value in series [2] was determined as 0.080 ± 0.008 min⁻¹. In addition, the IC50 in series [3] (24 h exposure) is over 100 µM; in series [3] (72 h exposure), 88.8 ± 5.32 µM; in series [4] (24 h exposure), over 100 µM; in series [4] (72 h exposure), over 100 µM. The “enhancement of cytotoxicity by chelation to copper(II), factor” value in series [4] is listed as “ca. 2”. Besides, the IC50 at 24 h in series [5] was over 100 µM. The compound further came in with an IC50 at 72 h in series [5] of over 100 µM.
Regarding `CNC(=S)N/N=C/c1cc(C[N+](C)(C)C)ccc1O` [[H2L^Me]Cl], the logD in series [1] is -0.39 ± 0.01. The “kobs, observed rate constant” value in series [2] is 0.073 ± 0.002 min⁻¹. The IC50 in series [3] (24 h exposure) is over 100 µM; in series [3] (72 h exposure), 74.4 ± 3.85 µM; in series [4] (24 h exposure), over 100 µM; in series [4] (72 h exposure) it was over 100 µM. The “enhancement of cytotoxicity by chelation to copper(II), factor” value in series [4] is recorded as “ca. 7”. Further, the IC50 at 24 h in series [5] was over 100 µM. Besides, the half-inhibitory concentration (IC50) at 72 h in series [5] is over 100 µM.
Take `C[N+](C)(C)Cc1ccc(O)c(/C=N/NC(=S)Nc2ccccc2)c1` [[H2L^Ph]Cl]: the logD in series [1] is 0.68 ± 0.04. In series [2], the “kobs, observed rate constant” value was determined as 0.025 ± 0.005 min⁻¹. For the same compound, the IC50 in series [3] (24 h exposure) was over 100 µM; in series [3] (72 h exposure), 95.8 ± 1.58 µM; in series [4] (24 h exposure) it was over 100 µM; in series [4] (72 h exposure), 31.5 ± 2.66 µM. The same compound gave an IC50 at 24 h in series [5] of over 100 µM. In addition, the IC50 at 72 h in series [5] was over 100 µM.
